From patent US11453841B2, “Functionalized branched alcohols as non-ionic sugar surfactants” (ExxonMobil Technology and Engineering Company, priority 2019, dated 2022)

Test: Surface tension isotherms
Format: physicochemical
Details: 22° C.
Method: Surface tension isotherms were measured for selected functionalized branched alcohols EXXAL™ 11-Glucose-3(EO )Linker (also referred to herein as “EXXAL™ 11-EO3-Glucoside”) and EXXAL™ 11-Galactose-3(EO)Linker, as well as comparative alkoxylated alcohol glycoside n-undecanol-glucose-3(EO)Linker (also referred to herein as “Undecanol-EO3-Glucoside”). The names, chemical structures, and weight average molecular weights of these functionalized branched alcohols are as follows:
Tables 7, 8 and 9 immediately below provide surface tension isotherms for the compounds 1, 2, and 3 measured at 22° C. Specifically, Table 7 provides surface tension data of n-undecanol-glucose-3(EO)Linker, Table 8 provides surface tension data of EXXAL™ 11-Gluscose-3(EO)Linker, and Table 9 provides surface tension data of EXXAL™ 11-Galactose-3(EO)Linker.

CCCCCCCCCCCOCCOCCOCCOC1OC(CO)C(O)C(O)C1O (stereo not drawn) [Compound 1, n-undecanol-glucose-3(EO)Linker]
Surface Tension (γ) (Molarity 0.000125058 mol/L): 41.0 mN/m
Surface Tension (γ) (Molarity 0.000339945 mol/L): 34.5 mN/m
Surface Tension (γ) (Molarity 0.000924077 mol/L): 33.2 mN/m
Surface Tension (γ) (Molarity 0.001928806 mol/L): 33.1 mN/m
Surface Tension (γ) (Molarity 1.69248E−05 mol/L): 55.6 mN/m
Surface Tension (γ) (Molarity 2.29052E−06 mol/L): 66.4 mN/m
Surface Tension (γ) (Molarity 4.60064E−05 mol/L): 48.6 mN/m
Surface Tension (γ) (Molarity 6.22628E−06 mol/L): 61.5 mN/m
Surface Tension (γ) (Molarity 8.42635E−07 mol/L): 70.2 mN/m
